Among the test systems are COLO 205 colon; SK-MEL-28 melanoma; CCRF-CEM leukemia; SW-620 colon; DU-145 prostate; MDA-MB-231 breast; SF-539 CNS; NCI-H23 lung; MALME-3M melanoma; TK-10 renal.
Test in all cases: NCI tumour cell line growth inhibition, 48 h

Structures are written as SMILES. Several values for one entry are separate records, joined by “and”; a condition that tells them apart may be missing. Equal values may be shown once.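 Exposure lasted 48 hours, with cells grown in 96-well plates and compounds tested at five concentrations. GI50 = concentration required for 50% inhibition of growth. The concentration for full growth arrest is given as TGI.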

For the compound `CCCCCCCC(=O)O[C@H]1[C@H]2[C@@H](CC1(C)C)C(=O)[C@]13O[C@H]1C(=O)[C@]1(CO1)[C@]23C`, the GI50 was 2.17 µM in the assay with COLO 205 colon; 5.87 µM in the assay on SK-MEL-28 melanoma; 0.593 µM with CCRF-CEM leukemia; 1.39 µM in the assay with SW-620 colon; 7.72 µM in the assay on SF-539 CNS; 12.5 µM in the assay with NCI-H23 lung. For the same compound, the TGI was 5.18 µM and 4.07 µM in the assay on COLO 205 colon; 12.7 µM and 6.55 µM in the assay with SK-MEL-28 melanoma; 3.57 µM and 1.58 µM in the assay on CCRF-CEM leukemia; 3.27 µM and 2.74 µM in the assay with SW-620 colon; 27.9 µM in the assay on DU-145 prostate; 44.5 µM with MDA-MB-231 breast. Further, the TGI in the assay on SF-539 CNS is 12.7 µM and 21.3 µM; in the assay on NCI-H23 lung it was 28.4 µM and 8.51 µM; in the assay with MALME-3M melanoma it was 10.9 µM and 6.34 µM; with TK-10 renal, 6.47 µM.
As to `CCN(CC)c1ccc(/C=C2/NC(=O)NC2=O)cc1`, the GI50 was 4.63 µM in the assay with COLO 205 colon; 15.9 µM with SK-MEL-28 melanoma; 9.66 µM in the assay with CCRF-CEM leukemia; 3.47 µM with SW-620 colon; 5.7 µM with DU-145 prostate; 28.7 µM with MDA-MB-231 breast. Further, the GI50 with SF-539 CNS was 5.57 µM; in the assay on NCI-H23 lung, 7.97 µM; in the assay with MALME-3M melanoma, 16 µM; with TK-10 renal, 9.56 µM. For the same compound, the TGI in the assay on COLO 205 colon is 23.6 µM; in the assay on SK-MEL-28 melanoma, greater than 100 µM; in the assay on CCRF-CEM leukemia, greater than 100 µM; with SW-620 colon it was greater than 100 µM; in the assay with DU-145 prostate, 32.6 µM; in the assay on MDA-MB-231 breast it was greater than 100 µM. Besides, the TGI in the assay with SF-539 CNS was 53.6 µM; in the assay on NCI-H23 lung it was greater than 100 µM; in the assay on MALME-3M melanoma, greater than 100 µM; in the assay on TK-10 renal, greater than 100 µM.
Regarding `C[C@@H]1CC[C@H]2C(CN(C)CC3=C(C(F)(F)F)O[C@@H]4O[C@@]5(C)CC[C@H]6[C@H](C)CC[C@@H]3[C@@]46OO5)=C(C(F)(F)F)O[C@@H]3O[C@@]4(C)CC[C@@H]1[C@]32OO4`, the GI50 with COLO 205 colon was 0.728 µM; in the assay on SK-MEL-28 melanoma, greater than 32.8 µM; in the assay with CCRF-CEM leukemia, 1.31 µM; in the assay on SW-620 colon, 0.65 µM; with DU-145 prostate it was 2.69 µM; with MDA-MB-231 breast it was 5.9 µM. Besides, the GI50 in the assay on SF-539 CNS was 0.488 µM; with NCI-H23 lung, 0.818 µM; in the assay with MALME-3M melanoma, 1.06 µM; in the assay on TK-10 renal it was 4.93 µM. The TGI in the assay with COLO 205 colon is greater than 100 µM; in the assay on SK-MEL-28 melanoma, greater than 100 µM; in the assay with CCRF-CEM leukemia it was greater than 42.9 µM; with SW-620 colon it was 53.3 µM; in the assay with DU-145 prostate, 16.8 µM; in the assay on MDA-MB-231 breast, greater than 93.1 µM. Also, the TGI in the assay with SF-539 CNS was greater than 100 µM; in the assay on NCI-H23 lung, 27 µM; in the assay on MALME-3M melanoma, greater than 83.9 µM; in the assay on TK-10 renal it was greater than 54.2 µM.
Regarding `COc1cc(C2CC(c3cc(Cl)c(C)cc3O)=NN2c2ccc(S(N)(=O)=O)cc2)cc(OC)c1OC` (stereo not given), the GI50 is 1.72 µM in the assay with COLO 205 colon; 3 µM in the assay with SK-MEL-28 melanoma; 4.51 µM with CCRF-CEM leukemia; 3.35 µM in the assay with SW-620 colon; 3.4 µM in the assay on DU-145 prostate; 2.09 µM in the assay on MDA-MB-231 breast. Besides, the GI50 was 1.77 µM in the assay with SF-539 CNS, 2.11 µM in the assay on NCI-H23 lung, 2.08 µM in the assay on MALME-3M melanoma and 2.6 µM with TK-10 renal. The TGI in the assay on COLO 205 colon was 3.09 µM; with SK-MEL-28 melanoma it was 7.86 µM; in the assay with CCRF-CEM leukemia, greater than 100 µM; with SW-620 colon, 10.7 µM; in the assay with DU-145 prostate, 11.2 µM; in the assay on MDA-MB-231 breast, 5.01 µM. For the same compound, the TGI in the assay with SF-539 CNS is 3.37 µM; in the assay with NCI-H23 lung, 5.32 µM; with MALME-3M melanoma it was 4.89 µM; with TK-10 renal, 6.6 µM.
For `CC(=O)O[C@H]1Cc2c([nH]c3ccccc23)[C@@H](c2ccc(Cl)cc2)N1C(=O)CCNC(C)(C)C`, the GI50 was 3.47 µM with COLO 205 colon; 4.65 µM in the assay with SK-MEL-28 melanoma; 5.12 µM in the assay on CCRF-CEM leukemia; 4.12 µM in the assay on SW-620 colon; 4.01 µM in the assay on DU-145 prostate; 1.79 µM in the assay with MDA-MB-231 breast. The GI50 in the assay with SF-539 CNS is 4.69 µM; with NCI-H23 lung, 5.12 µM; in the assay on MALME-3M melanoma it was 4.26 µM; in the assay with TK-10 renal it was 5.75 µM. The TGI worked out at 7.7 µM in the assay with COLO 205 colon; 9.04 µM in the assay with SK-MEL-28 melanoma; 14.8 µM with CCRF-CEM leukemia; 8.8 µM with SW-620 colon; 8.45 µM with DU-145 prostate; 6.07 µM in the assay on MDA-MB-231 breast. Further, the TGI is 9.12 µM with SF-539 CNS, 10.5 µM with NCI-H23 lung, 8.96 µM in the assay on MALME-3M melanoma and 10.5 µM in the assay with TK-10 renal.
For the compound `Nc1cc2ccncc2c2ccccc12`, the GI50 in the assay with COLO 205 colon is 6.89 µM; with SK-MEL-28 melanoma, 16.6 µM; in the assay on CCRF-CEM leukemia it was 12.6 µM; in the assay on SW-620 colon it was 5.19 µM; in the assay with DU-145 prostate, 13.2 µM; with MDA-MB-231 breast, 16.4 µM. In addition, the GI50 was 13.4 µM with SF-539 CNS, 16.7 µM with NCI-H23 lung, 15.7 µM with MALME-3M melanoma and 20.2 µM in the assay with TK-10 renal. The TGI in the assay on COLO 205 colon was 20.8 µM; in the assay with SK-MEL-28 melanoma, 33.6 µM; in the assay on CCRF-CEM leukemia, 99.1 µM; in the assay with SW-620 colon it was 89 µM; with DU-145 prostate, greater than 100 µM; in the assay with MDA-MB-231 breast, 96.1 µM. Further, the TGI in the assay with SF-539 CNS was 34 µM; in the assay with NCI-H23 lung, 80.1 µM; with MALME-3M melanoma, 31.4 µM; with TK-10 renal, 91.1 µM.
Take `COc1ccc(C2C3=C(COC3=O)N(CCO)c3cc4c(cc32)CCC4)cc1OC` (stereo not given): the GI50 in the assay on COLO 205 colon was 0.533 µM; with SK-MEL-28 melanoma, 0.697 µM; in the assay on CCRF-CEM leukemia it was 1.73 µM; in the assay on SW-620 colon, 0.328 µM; in the assay on DU-145 prostate, 0.574 µM; in the assay with MDA-MB-231 breast it was 2.52 µM. In addition, the results for the GI50 in the assay on SF-539 CNS, with NCI-H23 lung and in the assay with MALME-3M melanoma were 0.496 µM, 1.36 µM and 0.291 µM, respectively. Besides, the TGI in the assay with COLO 205 colon is 7.71 µM; with SK-MEL-28 melanoma, greater than 50 µM; in the assay on CCRF-CEM leukemia, greater than 50 µM; with SW-620 colon, greater than 50 µM; in the assay on DU-145 prostate it was 2.13 µM; in the assay with MDA-MB-231 breast it was greater than 50 µM. Also, the TGI is 6.43 µM in the assay on SF-539 CNS, greater than 50 µM in the assay with NCI-H23 lung, greater than 50 µM with MALME-3M melanoma and greater than 50 µM with TK-10 renal.
